Reference: PubChem BioAssay AID330 (DTP/NCI, 2004)
Several values for one entry are separate records, joined by “and”; a condition that tells them apart may be missing. Equal entries are not always repeated. Inconclusive results and toxic doses are left out. The calls were made as follows: active = survival T/C of 150% or more; inactive = T/C below 125% in these data.

Test system: P388 leukemia ip, CD2F1 mice, survival T/C
Assay: NCI In Vivo Anticancer Drug Screen. Data for tumor model P388 Leukemia (intraperitoneal) in CD2F1 (CDF1) mice
Details: endpoint: median survival time, higher = longer survival
Procedure, shortened: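 Mice carrying the transplanted tumor received test compound or vehicle. Survival was recorded in each group, and the value is the treated-group measurement divided by that of the vehicle-treated control group.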

[1] = dose: 25.0 mg/kg/injection, schedule: Q01DX005 (ip), vehicle: saline with Tween-80
[2] = dose: 50.0 mg/kg/injection, schedule: Q01DX005 (ip), vehicle: saline with Tween-80
[3] = dose: 100.0 mg/kg/injection, schedule: Q01DX005 (ip), vehicle: saline with Tween-80
[4] = dose: 200.0 mg/kg/injection, schedule: Q01DX005 (ip), vehicle: saline with Tween-80
[5] = dose: 60.0 mg/kg/injection, schedule: Q01DX005 (ip), vehicle: saline with Tween-80
[6] = dose: 120.0 mg/kg/injection, schedule: Q01DX005 (ip), vehicle: saline with Tween-80
[7] = dose: 240.0 mg/kg/injection, schedule: Q01DX005 (ip), vehicle: saline with Tween-80

Measured: T/C

Cc1cc(N(CCOS(C)(=O)=O)CCOS(C)(=O)=O)ccc1C=Nc1ccc(-c2nc(Cc3ccccc3)sc2C)cc1
inactive: dose: 12.5 mg/kg/injection, schedule: Q01DX009 (ip), vehicle: Klucel (hydroxypropylcellulose) (HPC) 101 % of control | dose: 12.5 mg/kg/injection, schedule: Q01DX009 (oral), vehicle: Klucel (hydroxypropylcellulose) (HPC) 106 % of control and 107 % of control | dose: 25.0 mg/kg/injection, schedule: Q01DX009 (oral), vehicle: Klucel (hydroxypropylcellulose) (HPC) 100 % of control and 107 % of control | dose: 50.0 mg/kg/injection, schedule: Q01DX009 (oral), vehicle: Klucel (hydroxypropylcellulose) (HPC) 106 % of control and 117 % of control | dose: 100.0 mg/kg/injection, schedule: Q01DX009 (oral), vehicle: Klucel (hydroxypropylcellulose) (HPC) 108 % of control | dose: 200.0 mg/kg/injection, schedule: Q01DX009 (oral), vehicle: Klucel (hydroxypropylcellulose) (HPC) 119 % of control and 124 % of control | dose: 400.0 mg/kg/injection, schedule: Q01DX009 (oral), vehicle: Klucel (hydroxypropylcellulose) (HPC) 106 % of control

Cc1cc2nnc(-c3ccc(C#N)cc3)n2c2nnnn12
inactive: [1] 100 % of control | [2] 100 % of control | [3] 104 % of control | [4] 104 % of control

CC1=C2CC(C)(C)/C=C\C(=O)/C(C)=C\C3=CC(C)(O)CC3(O2)C1=O (stereo not given)
inactive: dose: 0.92 mg/kg/injection, schedule: Q01DX009 (ip), vehicle: saline with Tween-80 102 % of control | dose: 1.25 mg/kg/injection, schedule: Q01DX009 (ip), vehicle: Klucel (hydroxypropylcellulose) (HPC) 109 % of control | dose: 1.84 mg/kg/injection, schedule: Q01DX009 (ip), vehicle: saline with Tween-80 98 % of control | dose: 2.5 mg/kg/injection, schedule: Q01DX009 (ip), vehicle: Klucel (hydroxypropylcellulose) (HPC) 120 % of control | dose: 3.67 mg/kg/injection, schedule: Q01DX009 (ip), vehicle: saline with Tween-80 116 % of control | dose: 5.0 mg/kg/injection, schedule: Q01DX009 (ip), vehicle: Klucel (hydroxypropylcellulose) (HPC) 118 % of control | dose: 7.34 mg/kg/injection, schedule: Q01DX009 (ip), vehicle: saline with Tween-80 118 % of control | dose: 10.0 mg/kg/injection, schedule: Q01DX009 (ip), vehicle: Klucel (hydroxypropylcellulose) (HPC) 120 % of control

CC1CCC2(CC1)CC(=O)N(N)C2=O (stereo not given)
inactive: [5] 104 % of control | [6] 105 % of control | [7] 108 % of control

Oc1ccc2ccccc2c1-c1c(OC(c2ccccc2)c2ccccc2)ccc2ccccc12
inactive: dose: 100.0 mg/kg/injection, schedule: Q04DX003 (ip), vehicle: saline with Tween-80 102 % of control | dose: 200.0 mg/kg/injection, schedule: Q04DX003 (ip), vehicle: saline with Tween-80 94 % of control | dose: 400.0 mg/kg/injection, schedule: Q04DX003 (ip), vehicle: saline with Tween-80 102 % of control

BrC1c2ccccc2-c2nc3ccccc3nc21 (stereo not given)
inactive: dose: 12.5 mg/kg/injection, schedule: Q01DX005 (ip), vehicle: Klucel (hydroxypropylcellulose) (HPC) 112 % of control | dose: 25.0 mg/kg/injection, schedule: Q01DX005 (ip), vehicle: Klucel (hydroxypropylcellulose) (HPC) 99 % of control | dose: 50.0 mg/kg/injection, schedule: Q01DX005 (ip), vehicle: Klucel (hydroxypropylcellulose) (HPC) 103 % of control and 115 % of control

Oc1ccc2c(c1)OC1(c3ccccc3)CC2N=CN1 (stereo not given)
inactive: dose: 12.5 mg/kg/injection, schedule: Q01DX009 (ip), vehicle: saline 103 % of control | dose: 25.0 mg/kg/injection, schedule: Q01DX009 (ip), vehicle: saline 95 % of control | dose: 50.0 mg/kg/injection, schedule: Q01DX009 (ip), vehicle: saline 107 % of control | dose: 50.0 mg/kg/injection, schedule: Q01DX009 (ip), vehicle: suspension in saline 98 % of control and 92 % of control | dose: 100.0 mg/kg/injection, schedule: Q01DX009 (ip), vehicle: suspension in saline 98 % of control and 92 % of control | dose: 200.0 mg/kg/injection, schedule: Q01DX009 (ip), vehicle: suspension in saline 99 % of control

CC1CC(Nc2ccc(NC3=CC(=O)OC(C)C3)cc2)=CC(=O)O1 (stereo not given)
inactive: [2] 94 % of control | [3] 92 % of control | [4] 90 % of control

Cc1c2ccncc2c(CNCCO)c2c3ccccc3n(C)c12
inactive: dose: 5.0 mg/kg/injection, schedule: Q01DX005 (ip), vehicle: saline 110 % of control | dose: 10.0 mg/kg/injection, schedule: Q01DX005 (ip), vehicle: saline 108 % of control | dose: 20.0 mg/kg/injection, schedule: Q01DX005 (ip), vehicle: saline 110 % of control

CCC1=CCC2C(=O)c3cc4ccccc4cc3C(=O)C2C1 (stereo not given)
inactive: dose: 6.25 mg/kg/injection, schedule: Q01DX005 (ip), vehicle: saline with Tween-80 103 % of control | dose: 12.5 mg/kg/injection, schedule: Q01DX005 (ip), vehicle: saline with Tween-80 108 % of control | [1] 108 % of control and 93 % of control

CCOC(=O)C(C(=O)C(F)(F)C(F)(F)C(F)(F)C(=O)C(C(=O)OCC)=P(c1ccccc1)(c1ccccc1)c1ccccc1)=P(c1ccccc1)(c1ccccc1)c1ccccc1
inactive: dose: 100.0 mg/kg/injection, schedule: Q01DX001 (ip), vehicle: saline with Tween-80 108 % of control | dose: 200.0 mg/kg/injection, schedule: Q01DX001 (ip), vehicle: saline with Tween-80 99 % of control | dose: 400.0 mg/kg/injection, schedule: Q01DX001 (ip), vehicle: saline with Tween-80 108 % of control

Cc1noc(C)c1C(=O)CCCCC(=O)O
inactive: [5] 102 % of control | [6] 95 % of control | [7] 104 % of control

Cc1ccc(NC(=O)OCCN(C)C)cc1Cl
inactive: dose: 60.0 mg/kg/injection, schedule: Q01DX005 (ip), vehicle: Klucel + Tween-80 101 % of control | dose: 120.0 mg/kg/injection, schedule: Q01DX005 (ip), vehicle: Klucel + Tween-80 99 % of control | dose: 240.0 mg/kg/injection, schedule: Q01DX005 (ip), vehicle: Klucel + Tween-80 91 % of control

CC12CCC3c4ccc(OC(=O)C56C=CC(=O)C5C5C=CC6CC5)cc4CCC3C1CCC2=O (stereo not given)
inactive: dose: 25.0 mg/kg/injection, schedule: Q01DX005 (ip), vehicle: distilled water + Tween-80 91 % of control | dose: 50.0 mg/kg/injection, schedule: Q01DX005 (ip), vehicle: distilled water + Tween-80 95 % of control | dose: 100.0 mg/kg/injection, schedule: Q01DX005 (ip), vehicle: distilled water + Tween-80 87 % of control | dose: 200.0 mg/kg/injection, schedule: Q01DX005 (ip), vehicle: distilled water + Tween-80 95 % of control

Cc1cc(O)c2c(=O)c(=O)c2c1
inactive: [2] 101 % of control | [3] 103 % of control

COC1=C(OC)C(=O)C(SCCCCCCC2CCCCC2)=C(C)C1=O
inactive: dose: 60.0 mg/kg/injection, schedule: Q01DX005 (ip), vehicle: saline + Tween-80 + alcohol 110 % of control | dose: 120.0 mg/kg/injection, schedule: Q01DX005 (ip), vehicle: saline + Tween-80 + alcohol 115 % of control

FC(F)(F)C(Cl)Br (stereo not given)
inactive: dose: 25.0 mg/kg/injection, schedule: Q04DX003 (ip), vehicle: saline 109 % of control | dose: 50.0 mg/kg/injection, schedule: Q04DX003 (ip), vehicle: saline 109 % of control | dose: 100.0 mg/kg/injection, schedule: Q01DX009 (ip), vehicle: saline 100 % of control | dose: 100.0 mg/kg/injection, schedule: Q04DX003 (ip), vehicle: saline 109 % of control | dose: 200.0 mg/kg/injection, schedule: Q01DX009 (ip), vehicle: saline 90 % of control | dose: 400.0 mg/kg/injection, schedule: Q01DX009 (ip), vehicle: saline 90 % of control

CS(C)(=O)=Nc1ccc(Br)cc1
inactive: dose: 100.0 mg/kg/injection, schedule: Q04DX002 (ip), vehicle: saline with Tween-80 98 % of control | dose: 200.0 mg/kg/injection, schedule: Q04DX002 (ip), vehicle: saline with Tween-80 98 % of control | dose: 400.0 mg/kg/injection, schedule: Q04DX002 (ip), vehicle: saline with Tween-80 103 % of control

Cc1nc2c(cc1C#N)C(NCCO)Oc1ccccc1-2 (stereo not given)
inactive: [5] 97 % of control | [6] 97 % of control | [7] 99 % of control

COc1cc(OC)c(-c2oc3c(OC)c(OC)c(OC)c(OC)c3c(=O)c2OC)cc1OC
inactive: dose: 15.0 mg/kg/injection, schedule: Q01DX005 (ip), vehicle: Klucel (hydroxypropylcellulose) (HPC) 94 % of control | dose: 30.0 mg/kg/injection, schedule: Q01DX005 (ip), vehicle: Klucel (hydroxypropylcellulose) (HPC) 102 % of control | dose: 60.0 mg/kg/injection, schedule: Q01DX005 (ip), vehicle: Klucel (hydroxypropylcellulose) (HPC) 92 % of control | dose: 120.0 mg/kg/injection, schedule: Q01DX005 (ip), vehicle: Klucel (hydroxypropylcellulose) (HPC) 90 % of control

CCN(CC)C(=O)NCCCCCCNC(=O)N(CC)CC
inactive: dose: 15.0 mg/kg/injection, schedule: Q01DX005 (ip), vehicle: saline with Tween-80 103 % of control | dose: 30.0 mg/kg/injection, schedule: Q01DX005 (ip), vehicle: saline with Tween-80 98 % of control and 104 % of control | [5] 98 % of control and 100 % of control and 94 % of control | [6] 87 % of control
